Laboratory results as given in patent US4652575A, “2-(ethylene-thio methyl furanyl)amino thiazole derivatives having acid secretion inhibiting activity” (Medosan Industrie Biochimiche Riunite S.p.A., priority 1984, dated 1987).
Like-named read-outs stand apart in the source and are kept apart here.

Experiments:
[1] = system: gastric acid secretion; conditions: experimental tests on animals and humans; prior art; cited from earlier work
[2] = target: T1, histamine H2 receptors (Cavia porcellus, UniProt P47747); conditions: Daly M. J., Br. J. Pharmac., 72, 49, 1982; cited from earlier work
T1 construct: tests on insulated atrium auricolas of Guinea pig heart; from tissue; host or cells: isolated guinea pig heart atrium

[3] = target: T1, histamine H2 receptors; assay: Antagonistic activity to the histamine H2 receptors "in vitro" on insulated atrium auricolas of Guinea pig heart; conditions: for inhibition at 10 µM / inhibition at 1 µM / inhibition at 0.1 µM: guinea pig, 0.5 h, read-out: Antagonizing activity to histamine H2 receptors; for inhibition at 10 µM: compound 1·10^-5 M/L; for inhibition at 1 µM: compound 1·10^-6 M/L; for inhibition at 0.1 µM: compound 1·10^-7 M/L; for antagonistic action to the histamine H2 receptors (in words): in vitro
Procedure: (§1) The preparations were a solution of the substances in 2.5% citric acid for the "in vitro" test and 5% citric acid for the "in vivo" test respectively. Citric acid was diluted in normal physiologic saline at neutral pH.
This activity was evaluated "in vitro" by carrying out tests on insulated atrium auricolas of Guinea pig heart. […] Metering was carried out by placing the preparation into a vessel containing a Ringer-Locke solution wherein pure oxygen was bubbling, at a temperature of 37° C. A response of the organ "in vitro" was first established at cumulative histamine doses of 2.5.10^-7, 5.10^-7, 10^-6, 5.10^-6, 10^-5 M/L. After obtaining two constant lines with histamine at a time interval of one hour from one another, the substances under test were added to the bath and after a 30 minutes contact with the preparation, a new histamine response line in the presence of the substance under test was drawn. The activity was tested at various concentrations of the new compounds (10^-5, 10^-6, 10^-7 and in one case 10^-8 M/L).

[4] = system: gastric secretion; assay: Activity on gastric secretion "in vivo" (volume and total acidity of gastric juice after pylorus tieing, Shay); set-up: species or system male Wistar rats; conditions: for ED50 / change in vivo at 20 mg/kg: Rattus norvegicus, po; for ED50: read-out: DE50 in rat calculated on total acidity (mEq/4 hours); for Total acidity gastric juice secretion / Volume gastric juice secretion / change in vivo at 20 mg/kg: 20 mg/kg oral; for ability to reduce the gastric acid secretion (in words): volume and total acidity of gastric juice
Procedure: as §1
The ability of the compounds according to the present invention to inhibit the gastric secretion was studied "in vivo" both by evaluating the volume reduction of gastric juice, and by measuring the total acidity of same after administration of the substances under test according to the Takeda method (see the aforementioned literature).
To this end, tests have been made on male Wistar rats of an average weight of 200 g. The animals, 10 for each substance, were placed into individual cages provided with ground grating in order to avoid coprophagy, without food but with free access to water for 24 hours before test. […] Four hours later the animals were sacrificed and the gastric juice was collected, of which the volume expressed in ml and the total acidity expressed in mEq was measured. The gastric juice ([…] ) was titrated with 0.1N NaOH to pH 7 to determine the acid concentration. The total acidity was then calculated as the product of the total volume of gastric juice by the acid concentration.

[5] = in vivo; conditions: po; for LD50 at 360 h: mouse; for LD50: rat
Description: The animals were kept under observation by checking mortality and possible pain signs for 15 days from start of test.

[6] = 6 hours before pilorus tieing, read-out: Total acidity gastric juice secretion, Variation %
[7] = 6 hours before pilorus tieing, read-out: Volume gastric juice secretion, Variation %
[8] = 12 hours before pilorus tieing, read-out: Total acidity gastric juice secretion, Variation %
[9] = 12 hours before pilorus tieing, read-out: Volume gastric juice secretion, Variation %
[10] = 24 hours before pilorus tieing, read-out: Total acidity gastric juice secretion, Variation %
[11] = 24 hours before pilorus tieing, read-out: Volume gastric juice secretion, Variation %
[12] = 36 hours before pilorus tieing, read-out: Total acidity gastric juice secretion, Variation %
[13] = 36 hours before pilorus tieing, read-out: Volume gastric juice secretion, Variation %
[14] = per os, 1 hour before pilorus tieing

T1 sequence (P47747 whole entry): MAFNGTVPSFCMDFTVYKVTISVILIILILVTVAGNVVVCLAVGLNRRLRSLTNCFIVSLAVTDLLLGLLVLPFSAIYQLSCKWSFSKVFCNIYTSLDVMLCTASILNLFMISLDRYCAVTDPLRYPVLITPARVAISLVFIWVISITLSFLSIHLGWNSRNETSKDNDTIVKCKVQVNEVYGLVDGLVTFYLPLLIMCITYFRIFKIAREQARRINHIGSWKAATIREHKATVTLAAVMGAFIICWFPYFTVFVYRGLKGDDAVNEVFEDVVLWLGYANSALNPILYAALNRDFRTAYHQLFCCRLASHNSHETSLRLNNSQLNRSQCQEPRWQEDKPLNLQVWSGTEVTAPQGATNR

Structure (SMILES)	reduction of gastric acid secretion (in words) [1]	inhibition at 10 µM ([3]; histamine 1·10^-5 M/L) [%]	inhibition at 10 µM ([3]; histamine 1·10^-6 M/L) [%]	inhibition at 10 µM ([3]; histamine 2,5·10^-7 M/L) [%]	inhibition at 10 µM ([3]; histamine 5·10^-6 M/L) [%]	inhibition at 10 µM ([3]; histamine 5·10^-7 M/L) [%]	inhibition at 1 µM ([3]; histamine 1·10^-5 M/L) [%]	inhibition at 1 µM ([3]; histamine 1·10^-6 M/L) [%]	inhibition at 1 µM ([3]; histamine 2,5·10^-7 M/L) [%]	inhibition at 1 µM ([3]; histamine 5·10^-6 M/L) [%]	inhibition at 1 µM ([3]; histamine 5·10^-7 M/L) [%]	inhibition at 0.1 µM ([3]; histamine 1·10^-5 M/L) [%]	inhibition at 0.1 µM ([3]; histamine 1·10^-6 M/L) [%]	inhibition at 0.1 µM ([3]; histamine 2,5·10^-7 M/L) [%]	inhibition at 0.1 µM ([3]; histamine 5·10^-6 M/L) [%]	inhibition at 0.1 µM ([3]; histamine 5·10^-7 M/L) [%]	antagonistic action to the histamine H2 receptors (in words) [3]	Total acidity gastric juice secretion ([4]; 6 hours before pilorus tieing)	Volume gastric juice secretion ([4]; 6 hours before pilorus tieing)	Total acidity gastric juice secretion ([4]; 12 hours before pilorus tieing)	further results
CN/C(=N/CCSCc1nc[nH]c1C)NC#N [Cimetidine, reference compound]	effective to reduce the gastric acid secretion	28	100	100	50	100	10	90	100	40	90	0	45	80	22	80	–	–	–	–	antagonism of histamine induced increase of contraction frequency of the insulated atrium (in words) [2]: competitively antagonize; ED50 [4]: 30 mg/kg
C/N=C(\S)NCCSCc1[nH]cnc1C [Metiamide]	effective to reduce the gastric acid secretion	–	–	–	–	–	–	–	–	–	–	–	–	–	–	–	–	–	–	–	–
CN(C)Cc1ccc(CSCCNc2nc(-c3ccc(-c4ccccc4)cc3)cs2)o1 [Example No. 5, 2-(2-(((5-(dimethylamino)methyl-2-furanyl)methyl)thio)ethyl)amino-4-(4-biphenyl)-thiazole]	–	100	100	100	100	100	45	70	100	60	90	25	65	95	40	85	interesting ability	0,08 mEq/4 hours	3,7 ml/4 hours	0,08 mEq/4 hours	Volume gastric juice secretion ([4]; 12 hours before pilorus tieing): 3,8 ml/4 hours; Total acidity gastric juice secretion ([4]; 24 hours before pilorus tieing): 0,13 mEq/4 hours; Volume gastric juice secretion ([4]; 24 hours before pilorus tieing): 4,9 ml/4 hours; Total acidity gastric juice secretion ([4]; 36 hours before pilorus tieing): 0,13 mEq/4 hours; Volume gastric juice secretion ([4]; 36 hours before pilorus tieing): 4,4 ml/4 hours; change in vivo at 20 mg/kg [4, 6]: -53%; change in vivo at 20 mg/kg [4, 7]: -30%; change in vivo at 20 mg/kg [4, 8]: -47%; change in vivo at 20 mg/kg [4, 9]: -25%; change in vivo at 20 mg/kg [4, 10]: -23%; change in vivo at 20 mg/kg [4, 11]: -13%; change in vivo at 20 mg/kg [4, 12]: -19%; change in vivo at 20 mg/kg [4, 13]: -21%; ED50 [4, 14]: 1.6 mg/kg; ability to reduce the gastric acid secretion (in words) [4]: interesting ability; LD50 at 360 h [5]: 2300 mg/kg; LD50 [5]: 3300 mg/kg
CN(C)Cc1ccc(CSCCNC(=S)NC(=O)c2ccccc2)o1 [Example No. 1, N-benzoyl-N'-(2-(((5-(dimethylamino)methyl-2-furanyl)methyl)-thio)ethyl)-thiourea]	–	100	100	100	100	100	50	80	100	60	90	20	65	90	35	85	interesting ability	0,08 mEq/4 hours	4,1 ml/4 hours	0,09 mEq/4 hours	Volume gastric juice secretion ([4]; 12 hours before pilorus tieing): 4,0 ml/4 hours; Total acidity gastric juice secretion ([4]; 24 hours before pilorus tieing): 0,13 mEq/4 hours; Volume gastric juice secretion ([4]; 24 hours before pilorus tieing): 5,0 ml/4 hours; Total acidity gastric juice secretion ([4]; 36 hours before pilorus tieing): 0,14 mEq/4 hours; Volume gastric juice secretion ([4]; 36 hours before pilorus tieing): 5,2 ml/4 hours; change in vivo at 20 mg/kg [4, 6]: -53%; change in vivo at 20 mg/kg [4, 7]: -23%; change in vivo at 20 mg/kg [4, 8]: -40%; change in vivo at 20 mg/kg [4, 9]: -21%; change in vivo at 20 mg/kg [4, 10]: -23%; change in vivo at 20 mg/kg [4, 11]: -11%; change in vivo at 20 mg/kg [4, 12]: -12%; change in vivo at 20 mg/kg [4, 13]: -7%; ED50 [4, 14]: 3.4 mg/kg; ability to reduce the gastric acid secretion (in words) [4]: interesting ability; LD50 at 360 h [5]: 750 mg/kg; LD50 [5]: 1000 mg/kg
CN(C)Cc1ccc(CSCCNc2nc(-c3ccc(Oc4ccccc4)cc3)cs2)o1 [Example No. 13, 2-(2-(((5-(dimethylamino)methyl-2-furanyl)methyl)thio)ethyl)amino-4-(4-phenoxy)phenyl-thiazole]	–	90	95	100	90	100	38	80	90	65	90	40	50	90	30	70	interesting ability	0,09 mEq/4 hours	3,9 ml/4 hours	0,09 mEq/4 hours	Volume gastric juice secretion ([4]; 12 hours before pilorus tieing): 3,9 ml/4 hours; Total acidity gastric juice secretion ([4]; 24 hours before pilorus tieing): 0,13 mEq/4 hours; Volume gastric juice secretion ([4]; 24 hours before pilorus tieing): 4,7 ml/4 hours; Total acidity gastric juice secretion ([4]; 36 hours before pilorus tieing): 0,15 mEq/4 hours; Volume gastric juice secretion ([4]; 36 hours before pilorus tieing): 5,1 ml/4 hours; change in vivo at 20 mg/kg [4, 6]: -47%; change in vivo at 20 mg/kg [4, 7]: -26%; change in vivo at 20 mg/kg [4, 8]: -40%; change in vivo at 20 mg/kg [4, 9]: -23%; change in vivo at 20 mg/kg [4, 10]: -23%; change in vivo at 20 mg/kg [4, 11]: -16%; change in vivo at 20 mg/kg [4, 12]: -6%; change in vivo at 20 mg/kg [4, 13]: -9%; ED50 [4, 14]: 2.6 mg/kg; ability to reduce the gastric acid secretion (in words) [4]: interesting ability; LD50 at 360 h [5]: 3000 mg/kg; LD50 [5]: > 3000 mg/kg
CNC(=S)NCCCCc1cnc[nH]1 [Burimamide]	effective to reduce the gastric acid secretion	–	–	–	–	–	–	–	–	–	–	–	–	–	–	–	–	–	–	–	–
